Assay results from publication PMC4961418, “A Selective Irreversible Inhibitor of Furin Does Not Prevent Pseudomonas Aeruginosa Exotoxin A-Induced Airway Epithelial Cytotoxicity” (PLoS ONE, 2016).
Side chains are listed from the residue outwards. Peptide text beside a SMILES is read from it. * marks the point of attachment. Biotin = O=C1N[C@H]2[C@H](CS[C@H]2CCCCC(=O)*)N1; X1 = N=C(N)NCCCC(N*)P(=O)(Oc1ccccc1)Oc1ccccc1; Palmitoyl = CCCCCCCCCCCCCCCC(=O)*; Ahx = NCCCCCC(=O)O

Tests used:
cathepsin B = cathepsin B (Homo sapiens, UniProt P07858); test: Cathepsin B activity assay; format: biochemical; conditions: up to and including a concentration of 10 μM, N = 3
Experimental: Fig 3 Comparison of QUB-F1 and furin I versus cathepsin B. Cathepsin B activity was assessed in the presence or absence of various concentrations of QUB-F1 or furin I (N = 3). Data represent mean ± s.e.m.

chymotrypsin = test: Fluorogenic protease activity assay, chymotrypsin; format: biochemical, human; conditions: 10 μM inhibitor, Suc-Ala-Ala-Pro-Phe-NH2Mec 50 μM, N = 3
Description: (§1) Recombinant human enzymes were sourced as follows: furin and matriptase (R&D Systems); prostasin (Sino Biological); trypsin and chymotrypsin (Sigma-Aldrich); factor Xa and neutrophil elastase (Merck Millipore) and proteinase-3 and cathepsin G (Elastin Products, Missouri). Fluorogenic substrates were sourced as follows: p-Glu-Arg-Thr-Lys-Arg-NH2Mec and Boc-Gln-Ala-Arg-NH2Mec (R&D Systems); Boc-Ile-Glu-Gly-Arg-NH2Mec (Bachem); Z-Gly-Gly-Arg-NH2Mec, MeOSuc-Ala-Ala-Pro-Val-NH2Mec and Suc-Ala-Ala-Pro-Phe-NH2Mec (Sigma-Aldrich). All chemicals and reagents for the synthesis of QUB-F1 were supplied by Sigma-Aldrich unless otherwise indicated. Fmoc-Lys(Boc)-SASRIN resin was sourced from Bachem. Fmoc-protected amino acids and HCTU were supplied by Merck Millipore.
(§2) Recombinant protease activities were assessed using the cognate fluorogenic substrates (final concentration 50 μM) as follows: trypsin (Z-Gly-Gly-Arg-NH2Mec), prostasin and matriptase (Boc-Gln-Ala-Arg-NH2Mec), factor Xa (Boc-Ile-Glu-Gly-Arg-NH2Mec), neutrophil elastase and proteinase 3 (MeO-Suc-Ala-Ala-Pro-Val-NH2Mec), chymotrypsin and cathepsin G (Suc-Ala-Ala-Pro-Phe-NH2Mec). The rate of substrate hydrolysis in the presence or absence of furin inhibitors was assessed by continuous recording at λex 360 nm, λem 480 nm, over a period of 60 minutes using a FLUOstar Optima microplate reader (BMG Labtech). […]

CuFi-1 epithelial cells = test: PEA-induced epithelial cell toxicity (LDH cytotoxicity assay); format: cell-based, human; conditions: 2 μg/ml PEA, 24 h, CF airway epithelial cells
Experimental: The CuFi-1 cell line was derived from human airway epithelium of a CF patient (F508del/F508del) transformed with a reverse transcriptase component of telomerase, hTERT and human papillomavirus type 16 E6 and E7 genes. Cells were grown as submerged cultures using bronchial epithelial growth medium (BEBM including a supplement pack) containing: epidermal growth factor, hydrocortisone, bovine pituitary extract, transferrin, bovine insulin, triiodothyronine, epinephrine, retinoic acid, penicillin-streptomycin (0.025 μg/ml), gentamycin ([…]) and amphotericin (25 μg/ml).
Cytotoxicity was determined using the LDH-Cytotoxicity Colorimetric Assay Kit II (Bio Vision) in accordance with the instructions provided by the manufacturer. Addition of the supplied cell lysis solution to control wells was used to determine 100% cytotoxicity in each set of experiments.
Fig 4 Effect of furin inhibitors on PEA-induced epithelial cell toxicity. (A) Cell toxicity (%) induced by 2 μg/ml PEA (24 h) was measured in the presence or absence of furin I or QUB-F1. Data represent mean ± s.e.m. *P<0.05. (B) Airway epithelial cell surface furin-like activity was assayed upon application of the furin fluorogenic substrate (pERTKR) to cell cultures in the presence or absence of 10 μM furin I or QUB-F1.

proteinase 3 = biological target: T1, proteinase 3 (Homo sapiens, UniProt P24158); test: Fluorogenic protease activity assay, proteinase 3; format: biochemical; conditions: 10 μM inhibitor, MeO-Suc-Ala-Ala-Pro-Val-NH2Mec 50 μM, N = 3
T1 construct: purchased Elastin Products, Missouri
T1 sequence (P24158 28-256): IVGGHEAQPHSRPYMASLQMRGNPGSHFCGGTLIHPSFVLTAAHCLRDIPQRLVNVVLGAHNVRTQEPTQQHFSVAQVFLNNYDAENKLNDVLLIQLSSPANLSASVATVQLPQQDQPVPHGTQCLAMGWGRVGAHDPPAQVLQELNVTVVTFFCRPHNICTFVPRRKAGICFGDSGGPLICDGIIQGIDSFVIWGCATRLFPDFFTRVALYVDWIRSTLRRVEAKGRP
Description: as §1, §2

factor Xa = biological target: T2, factor Xa (Homo sapiens, UniProt P00742); test: Fluorogenic protease activity assay, factor Xa; format: biochemical; conditions: 10 μM inhibitor, Boc-Ile-Glu-Gly-Arg-NH2Mec 50 μM, N = 3
T2 construct: factor Xa and neutrophil elastase (Merck Millipore); purchased Merck Millipore
Description: as §1, §2

T2 sequence (P00742 235-488 limits assumed): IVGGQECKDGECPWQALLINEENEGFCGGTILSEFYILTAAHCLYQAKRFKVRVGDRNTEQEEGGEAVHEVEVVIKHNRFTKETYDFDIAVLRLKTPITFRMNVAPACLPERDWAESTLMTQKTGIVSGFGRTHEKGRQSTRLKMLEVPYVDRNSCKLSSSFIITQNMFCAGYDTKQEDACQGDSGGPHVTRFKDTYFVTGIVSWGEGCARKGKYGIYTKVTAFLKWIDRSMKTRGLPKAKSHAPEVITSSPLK
T2 sequence (P00742 41-179 partner limits assumed): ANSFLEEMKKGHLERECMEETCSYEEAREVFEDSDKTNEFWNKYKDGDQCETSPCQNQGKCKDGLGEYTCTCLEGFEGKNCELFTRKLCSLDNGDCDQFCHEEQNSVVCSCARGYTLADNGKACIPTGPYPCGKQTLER

Compound: CCCCCCCCCCCCCCCC(=O)N[C@@H](CCCCNC(=O)CCCCCNC(=O)CCCC[C@@H]1SC[C@@H]2NC(=O)N[C@@H]21)C(=O)N[C@@H](CCCNC(=N)N)C(=O)N[C@H](C(=O)N[C@@H](CCCCN)C(=O)NC(CCCNC(=N)N)P(=O)(Oc1ccccc1)Oc1ccccc1)C(C)C (stereo partly drawn) [QUB-F1, N^α-Pal-N^ω-(Biotinyl-Ahx)-Lys-RVKR^P(OPh)2] (Palmitoyl-K([Ahx-Biotin])RVK-X1)
- inhibitory action on cathepsin B (cathepsin B): no inhibitory action
- inhibition of chymotrypsin (chymotrypsin): Neither compound was found to inhibit
- effect on PEA-induced epithelial cell toxicity (CuFi-1 epithelial cells): offered no protection
- inhibition of proteinase 3 (proteinase 3): Neither compound was found to inhibit
- inhibition of factor Xa (factor Xa): did not
